# Assay results: patent publication US20250205385A1, “SILICONE MATERIAL, SILICONE TUBE, IMPLANT, PHARMACEUTICAL COMPOSITION, AND TEST METHOD FOR AMOUNT OF DRUG RELEASED” (SHENYANG XINGHUA PHARMACEUTICAL TECHNOLOGY CO., LTD, priority 2022, published 2025)
# Read-outs that look alike come from different tables or passages of the source.
# Legend:
# [1] = Equilibrium solubility of gestodene bulk drug in water and normal saline, before and after micronization; format: physicochemical; details: thermodynamic from solid, shaken 72 hours
# Experimental: The prepared implant needs to be implanted in the subcutaneous tissue of the human upper arm, where the pH is close to neutral. Therefore, the release medium can be either water or normal saline. A supersaturated solution of the gestodene bulk drug in water and normal saline, both before and after micronization, was prepared. The solution was placed in a shaker and shaken for 72 hours. After shaking, the mixture was taken out and centrifuged, and the supernatant was filtered. The equilibrium solubility of the gestodene bulk drug in water and normal saline, both before and after micronization, was determined using high performance liquid chromatography. Based on the results, the appropriate release medium was selected.
# In vitro release experiments were conducted on implants with different silicone tube wall thicknesses, medicinal core side areas, and drug particle sizes. Based on the in vitro release results, long-acting contraceptive implants with a daily drug release of 10-30 μg were prepared. The prepared implant was implanted in the subcutaneous tissue of the human upper arm, where the pH was close to neutral, allowing the release medium to be chosen between water and normal saline. A supersaturated solution of the gestodene bulk drug in water and normal saline, both before and after micronization, was prepared. The solution was placed in a shaker and shaken for 72 hours. After shaking, the mixture was taken out and centrifuged, and the supernatant was filtered. The equilibrium solubility of the gestodene bulk drug in water and normal saline, both before and after micronization, was determined using high performance liquid chromatography. Based on the results, the appropriate release medium was selected. Water was selected as the release medium for the in vitro release experiments. In the following experiments to investigate the in vitro release amount, the implant from Example 27 was subjected to depowdering pre-treatment, which involved adding 50 mL of anhydrous ethanol to a conical flask containing the implant, followed by ultrasonication for 1 minute. This process was repeated three times, after which 100 mL of distilled water was added and left overnight. The next day, the soaking solution was discarded, and the implant was placed in a shaker for in vitro release.
# [2] = cited from earlier work
# [3] = cited from earlier work; for Solubility: in water
compound,measurement,setting,value
C#C[C@]1(O)C=C[C@H]2[C@@H]3CCC4=CC(=O)CC[C@@H]4[C@H]3CC[C@@]21CC [gestodene],solubility at 72 h,"[1]; normal saline, saline or isotonic, drug particle size 2.81 μm (micronized), normal saline (NS)",2.71 ± 0.24 µg/mL
same,solubility at 72 h,"[1]; normal saline, saline or isotonic, drug particle size 80.30 μm (unmicronized), normal saline (NS)",5.3 ± 0.58 µg/mL
same,solubility at 72 h,"[1]; water or normal saline, drug particle size 2.81 μm (micronized), water",4.11 ± 0.52 µg/mL
same,solubility at 72 h,"[1]; water or normal saline, drug particle size 80.30 μm (unmicronized), water",5.64 ± 0.62 µg/mL
same,bioavailability,[2]; background statement,~100%
same,daily release sufficient to produce a contraceptive effect,"[2]; humans, review of the literature",10 to 20 µg
O=c1c(-c2ccc(O)cc2)coc2c([C@@H]3O[C@H](CO)[C@@H](O)[C@H](O)[C@H]3O)c(O)ccc12 [puerarin],Solubility,[3]; bulk drug,4000 µg/mL
same,LogP,[3]; bulk drug,−0.67
same,pKa,[3]; bulk drug,6.45
same,pKa,[3],6.45
same,solubility in water,[3],4000 µg/mL
Cc1nc2n(c(=O)c1CCN1CCC(c3noc4cc(F)ccc34)CC1)CCCC2O (stereo not shown) [paliperidone],LogP,[3]; bulk drug,3.02
same,pKa,[3]; bulk drug,7.72
same,pKa,[3],7.72
CC(C)Cc1ccc(C(C)C(=O)O)cc1 (stereo not shown) [ibuprofen],Solubility,[3]; bulk drug,60 µg/mL
same,LogP,[3]; bulk drug,3.72
same,solubility in water,[3],60 µg/mL
Cc1cnc(NC(=O)C2=C(O)c3ccccc3S(=O)(=O)N2C)s1 [meloxicam],Solubility,[3]; bulk drug,3.4 µg/mL
same,LogP,[3]; bulk drug,3.35
same,pKa,[3]; bulk drug,4
same,pKa,[3],4
same,solubility in water,[3],3.4 µg/mL
